Test results reported in patent publication US11633459B2, “GIP derivatives and uses thereof” (priority 2018, dated 2023).

How the values were obtained:
[1] = Chemical stability: HMWP formation by SEC-MS; type: physicochemical; conditions: 250 μM, pH 7.4, 37° C., 4 weeks
Procedure: The aim of this study is to determine the chemical stability of GIP derivative compositions. As a measure of stability of the GIP derivative composition, the formation of high molecular weight peptide formation (% HMWP) as a function of time was analysed by size-exclusion chromatography (SEC-MS). Further, the purity loss of the GIP derivative compositions was measured by LCMS. Samples for chemical stability assays were freshly prepared before each assay. […] The pH of the sample was adjusted to the desired value using appropriate amounts of concentrated NaOH and HCl. […] Formation of covalent oligomers (HMWPs) was analysed and identified by a SEC-MS method. […] The LC system was coupled to both a TUV detector operated at 215 nm, 10 Hz and a high resolution QToF mass spectrometer from Waters (Synapt G2S) operated in positive ion mode and m/z range of 100 to 4000 with normal resolution setting. Lock mass correction against Leu-Enkephalin was done every 31 sec. Spectra were processed in MassLynx version 4.1 and MaxEnt deconvoluted.

[2] = target: T1, human GIP receptor (Homo sapiens, UniProt P48546); experiment: In vitro potency, CRE luciferase reporter gene assay, whole BHK cells expressing human GIP receptor; type: cell-based; conditions: 0.2% HSA
T1 construct: expressed in transfected cells; host or cells: BHK cells (parent line BHKTS13), clone BHK CRE luc2P hGIPR clone #5
T1 sequence (P48546 22-466): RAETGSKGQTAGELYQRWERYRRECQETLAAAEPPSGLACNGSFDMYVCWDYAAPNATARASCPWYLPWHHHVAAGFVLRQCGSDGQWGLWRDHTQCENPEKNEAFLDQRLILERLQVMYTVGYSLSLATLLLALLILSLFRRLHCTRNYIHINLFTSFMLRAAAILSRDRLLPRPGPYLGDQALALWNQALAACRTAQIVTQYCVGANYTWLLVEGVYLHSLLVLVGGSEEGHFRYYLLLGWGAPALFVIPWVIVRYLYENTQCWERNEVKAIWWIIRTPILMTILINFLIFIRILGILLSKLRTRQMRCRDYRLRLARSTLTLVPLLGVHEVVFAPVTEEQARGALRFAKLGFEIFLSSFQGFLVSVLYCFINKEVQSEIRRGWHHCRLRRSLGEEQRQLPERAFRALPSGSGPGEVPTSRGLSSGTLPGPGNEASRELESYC
Method in brief: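 BHK clones carrying a CRE luciferase element, each transfected with one human receptor, were seeded at 5000 cells/well overnight. Compounds were diluted in buffer with 1% ovalbumin and 0.1% Pluronic F-68, with or without human serum albumin. Luminescence was read after steadylite plus; non-linear log(agonist)-response fit, averaged over at least two replicates.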

[3] = in vivo; conditions: female, Göttingen, minipig, iv, 5 nmol/kg
Procedure: Pharmacokinetic Study in Minipigs
The purpose of this study is to determine the half-life in vivo of the derivatives of the present invention after i.v. administration to minipigs, i.e. the prolongation of their time in the body and thereby their time of action. This is done in a pharmacokinetic (PK) study, where the terminal half-life of the derivative in question is determined. By terminal half-life is generally meant the period of time it takes to halve a certain plasma concentration, measured after the initial distribution phase.
Female Göttingen minipigs were obtained from Ellegaard Göttingen Minipigs (Dalmose, Denmark) approximately 7-14 months of age and weighing from approximately 16-35 kg were used in the studies. The minipigs were housed individually and fed restrictedly once daily with SDS minipig diet (Special Diets Services, Essex, UK).
After at 3 weeks of acclimatisation two permanent central venous catheters were implanted in vena cava caudalis in each animal. The animals were allowed 1 week recovery after the surgery, and were then used for repeated pharmacokinetic studies with a suitable wash-out period between successive derivative dosing.
Blood samples (for example 0.8 ml) were collected in EDTA buffer (8 mM) and then centrifuged at 4° C. and 1942G for 10 minutes.
Individual plasma concentration-time profiles were analysed by a non-compartmental model in Phoenix WinNonLin ver. […] (Pharsight Inc., Mountain View, Calif., USA), and the resulting terminal half-lives (harmonic mean) determined.

[4] = Dynamic Light Scattering Stability Index (DLS-SI); type: physicochemical; conditions: concentration only 5 μM instead of 250 μM, pH 7.4, 25° C.
[5] = Sub-chronic in vivo study in DIO mice: food intake and body weight; parameters: species or system DIO male C57BL/6J mice; conditions: Tables 6-8, compound 47 2 nmol/kg, GIP derivatives 30 nmol/kg
Description: (§1) The purpose of this example is to assess the in vivo effect of the GIP derivatives of the present invention alone and in combination with a GLP-1 receptor agonist on food intake, body weight, and glucose tolerance in diet-induced obese (DIO) mice. The GLP-1 receptor agonist used for this example was a semaglutide-like molecule that has the same pharmacological properties as semaglutide, but a slightly different structure. The compound may be synthesised using methods known in the art, e.g. as described by methods of present Example 1 or as described in WO 2006/097537, example 4.
(§2) The animals were treated once daily with the GLP-1 receptor agonist (compound no. 47) and/or a GIP derivative of the present invention exemplified by compound no.'s 5, 25 and 31, to assess weight loss, efficacy and glucose tolerance. Animals and Diet
All animal protocols were approved by an Institutional Animal Care and Use Committee and Ethical Review Committee of Novo Nordisk. Animals were housed according to Novo Nordisk rodent housing standards, and were given ad libitum access to food and water under controlled lighting (12 h:12 h light/dark cycle; lights off 18:00-06:00), temperature (23±2° C.) and relative humidity (50±20%) conditions. […]
Body weight (BW) and food intake were measured immediately prior to dosing each day. […]

[6] = Sub-chronic in vivo study in DIO mice: IPGTT (intraperitoneal glucose tolerance test); parameters: species or system DIO male C57BL/6J mice; conditions: Tables 6-8, compound 47 2 nmol/kg, GIP derivatives 30 nmol/kg
Description: as §1, §2
All animal protocols were approved by an Institutional Animal Care and Use Committee and Ethical Review Committee of Novo Nordisk. […]
On the day of the glucose tolerance test (day 15), animals were fasted for 4 h. […] Tail blood glucose levels were measured and mice were injected (t=0) with an intra-peritoneal (i.p.) glucose load of 2 g/kg (200 mg/ml glucose solution, dose volume 10 ml/kg). Tail blood glucose levels were measured at times 0, 15, 30, 60, 90, 120 minutes following the i.p. glucose load. […]

| Compound | HMWP formation (%/month) [1] | effect on food intake and body weight (in words) [5] | effect on glucose tolerance (in words) [6] | other results |
| --- | --- | --- | --- | --- |
| CCCC[C@H](NC(=O)[C@H](C)NC(=O)[C@@H](NC(=O)[C@H](CO)NC(=O)[C@H](Cc1ccc(O)cc1)NC(=O)[C@H](CC(=O)O)NC(=O)[C@H](CO)NC(=O)[C@@H](NC(=O)[C@H](Cc1ccccc1)NC(=O)[C@@H](NC(=O)CNC(=O)[C@H](CCC(=O)O)NC(=O)C(C)(C)NC(=O)[C@@H](Cc1ccc(O)cc1)NC(C)=O)[C@@H](C)O)[C@@H](C)CC)[C@@H](C)CC)C(=O)N[C@@H](CC(=O)O)C(=O)N[C@@H](CCCCN)C(=O)N[C@H](C(=O)N[C@@H](CCCNC(=N)N)C(=O)N[C@@H](CCC(N)=O)C(=O)N[C@@H](CCC(N)=O)C(=O)N[C@@H](CC(=O)O)C(=O)N[C@@H](Cc1ccccc1)C(=O)N[C@H](C(=O)N[C@@H](CCCCNC(=O)CC[C@H](NC(=O)CC[C@H](NC(=O)CC[C@H](NC(=O)CCCCCCCCCCCCCCCCC(=O)O)C(=O)O)C(=O)O)C(=O)O)C(=O)N[C@@H](Cc1c[nH]c2ccccc12)C(=O)N[C@@H](CC(C)C)C(=O)N[C@@H](CC(C)C)C(=O)N[C@@H](C)C(=O)N[C@@H](CCC(N)=O)C(=O)N[C@@H](CCCCN)C(=O)NCC(=O)O)C(C)C)[C@@H](C)CC [Compound 5, N{1}-acetyl, N{Epsilon-24}-[(4S)-4-carboxy-4-[[(4S)-4-carboxy-4-[[(4S)-4-carboxy-4-(17-carboxyheptadecanoylamino)butanoyl]amino]butanoyl]amino]butanoyl]-[D-Tyr1,Aib2,Nle14,Arg18,Lys24]-hGIP(1-31)] | – | – | – | EC50 [2]: 0.0209 nM; half-life [3]: 79 h |
| N{1}-acetyl,N{Epsilon-24}-[(4S)-4-carboxy-4-[[(4S)-4-carboxy-4-[[(4S)-4-carboxy-4-[[4-[(19-carboxynonadecanoylamino)methyl]cyclohexanecarbonyl]amino]butanoyl]-amino]butanoyl]amino]butanoyl]-[D-Tyr1,Nle14,Arg18,Aib20,Lys24]-hGIP(1-31) [Compound 25] | – | minor effect on food intake | improved glucose tolerance | – |
| N^6,26-{18-[N-(17-carboxyheptadecanoyl)-D-γ-glutamyl]-10-oxo-3,6,12,15-tetraoxa-9,18-diazaoctadecanoyl}-[8-(2-amino-2-propanoic acid), 34-L-arginine]human glucagon-like peptide 1(7-37) [Compound 47, reference compound] | – | induced a reduction in food intake that resulted in body weight loss | improvement in glucose tolerance | – |

Further lines, with some results ahead:

| HMWP formation (%/month) [1] | Compound | effect on food intake and body weight (in words) [5] | effect on glucose tolerance (in words) [6] | other results |
| --- | --- | --- | --- | --- |
| 2.0 %/month | CC[C@H](C)[C@H](NC(=O)[C@H](CO)NC(=O)[C@H](Cc1ccc(O)cc1)NC(=O)[C@H](CC(=O)O)NC(=O)[C@H](CO)NC(=O)[C@@H](NC(=O)[C@H](Cc1ccccc1)NC(=O)[C@@H](NC(=O)CNC(=O)[C@H](CCC(=O)O)NC(=O)[C@H](C)NC(=O)[C@@H](N)Cc1ccc(O)cc1)[C@@H](C)O)[C@@H](C)CC)C(=O)N[C@@H](C)C(=O)N[C@@H](CCSC)C(=O)N[C@@H](CC(=O)O)C(=O)N[C@@H](CCCCN)C(=O)N[C@H](C(=O)N[C@@H](Cc1c[nH]cn1)C(=O)N[C@@H](CCC(N)=O)C(=O)N[C@@H](CCC(N)=O)C(=O)N[C@@H](CC(=O)O)C(=O)N[C@@H](Cc1ccccc1)C(=O)N[C@H](C(=O)N[C@@H](CC(N)=O)C(=O)N[C@@H](Cc1c[nH]c2ccccc12)C(=O)N[C@@H](CC(C)C)C(=O)N[C@@H](CC(C)C)C(=O)N[C@@H](C)C(=O)N[C@@H](CCC(N)=O)C(=O)N[C@@H](CCCCN)C(=O)NCC(=O)N[C@@H](CCCCN)C(=O)N[C@@H](CCCCN)C(=O)N[C@@H](CC(N)=O)C(=O)N[C@@H](CC(=O)O)C(=O)N[C@@H](Cc1c[nH]c2ccccc12)C(=O)N[C@@H](CCCCN)C(=O)N[C@@H](Cc1c[nH]cn1)C(=O)N[C@@H](CC(N)=O)C(=O)N[C@H](C(=O)N[C@H](C(=O)N[C@@H](CCC(N)=O)C(=O)O)[C@@H](C)O)[C@@H](C)CC)C(C)C)[C@@H](C)CC [hGIP(1-42)] | – | – | – |
| 0.15 %/month | CC[C@H](C)[C@H](NC(=O)[C@H](CO)NC(=O)[C@H](Cc1ccc(O)cc1)NC(=O)[C@H](CC(=O)O)NC(=O)[C@H](CO)NC(=O)[C@@H](NC(=O)[C@H](Cc1ccccc1)NC(=O)[C@@H](NC(=O)CNC(=O)[C@H](CCC(=O)O)NC(=O)[C@H](C)NC(=O)[C@@H](N)Cc1ccc(O)cc1)[C@@H](C)O)[C@@H](C)CC)C(=O)N[C@@H](C)C(=O)N[C@@H](CCSC)C(=O)N[C@@H](CC(=O)O)C(=O)N[C@@H](CCCCN)C(=O)N[C@H](C(=O)N[C@@H](Cc1c[nH]cn1)C(=O)N[C@@H](CCC(N)=O)C(=O)N[C@@H](CCC(N)=O)C(=O)N[C@@H](CC(=O)O)C(=O)N[C@@H](Cc1ccccc1)C(=O)N[C@H](C(=O)N[C@@H](CC(N)=O)C(=O)N[C@@H](Cc1c[nH]c2ccccc12)C(=O)N[C@@H](CC(C)C)C(=O)N[C@@H](CC(C)C)C(=O)N[C@@H](C)C(=O)N[C@@H](CCC(N)=O)C(=O)N[C@@H](CCCCN)C(=O)NCC(=O)O)C(C)C)[C@@H](C)CC [hGIP(1-31)] | – | – | DLS-SI precipitates [4]: formation of large aggregates became visible as precipitation |
